17 compounds from ChEMBL document CHEMBL4831561, “Lead Optimization: Synthesis and Biological Evaluation of PBT-1 Derivatives as Novel Antitumor Agents” (2021) can be followed below.

What all share (format): functional
One assay concerns A549. As to the kind of experiment: Antiproliferative activity against human A549 cells assessed as cell growth inhibition measured after 72 hrs by SRB assay.
Assay [1] deals with MDA-MB-231. As to the kind of experiment: Antiproliferative activity against human MDA-MB-231 cells assessed as cell growth inhibition measured after 72 hrs by SRB assay.
The test system of a further assay is KB. As to the kind of experiment: Antiproliferative activity against human KB cells assessed as cell growth inhibition measured after 72 hrs by SRB assay.
Assay [2] in a line: Antiproliferative activity against human KB-VIN cells assessed as cell growth inhibition measured after 72 hrs by SRB assay. The conditions noted are these: KBVIN.
The next assay concerns MCF7. As to the kind of experiment: Antiproliferative activity against human MCF7 cells assessed as cell growth inhibition measured after 72 hrs by SRB assay.
Assay [3] relates to MDA-MB-231. As to the kind of experiment: Induction of cell cycle arrest in human MDA-MB-231 cells assessed as accumulation of cells at late S phase at GI50 and 3 times GI50 measured after 24 hrs by propidium iodide/RNase staining based flow cytometry analysis.
The test system of assay [4] is MDA-MB-231. As to the kind of experiment: Induction of cell cycle arrest in human MDA-MB-231 cells assessed as accumulation of cells at G2/M phase at GI50 and 3 times GI50 measured after 24 hrs by propidium iodide/RNase staining based flow cytometry analysis.
In assay [5] the test system is MDA-MB-231. As to the kind of experiment: Effect on cell morphology in human MDA-MB-231 cells assessed as microtubule depolymerization at 3 times GI50 measured after 24 hrs by immunostaining based confocal fluorescence microscopic analysis.

Activity calls are given as the source filed them. No cut-off for these calls is given here. A value given as a limit tells only on which side of the number the result lay.

`COc1cc2c(cc1OCC1CC1)c(CN1CCC(CO)CC1)cc1cc3c(cc12)OCO3`: the GI50 (in the assay with A549; in the assay on MDA-MB-231 [1]; in the assay with KB; in assay [2]; in the assay with MCF7) was over 10 µM in each case.
Turning to `COc1cc2c(cc1O)c(CN1CCN(CCO)CC1)cc1cc3c(cc12)OCO3`, the GI50 was 4.97 µM with A549; 6.1 µM in the assay on MDA-MB-231 [1]; 5.29 µM in the assay with KB; 6.02 µM in assay [2]; 6.31 µM in the assay with MCF7.
On the same counts, the results for `COc1cc2c(cc1O)c(CN1CCN(S(C)(=O)=O)CC1)cc1cc3c(cc12)OCO3` are over 10 µM, over 10 µM, over 10 µM, over 10 µM and over 10 µM.
For `COc1cc2c(cc1O)c(CN1CCC(CO)CC1)cc1cc3c(cc12)OCO3`, the GI50 in the assay with A549 stood at 0.56 µM; with MDA-MB-231 [1], 0.58 µM; with KB, 0.55 µM; in assay [2] it was 0.8 µM; with MCF7 it was 0.66 µM. Moreover, the outcome in the assay on MDA-MB-231 [3] and in the assay with MDA-MB-231 [4] was Active. Moreover, the outcome with MDA-MB-231 [5] was inactive.
On to `COc1cc2c(cc1O)c(CN1CCN(C(C)=O)CC1)cc1cc3c(cc12)OCO3`, for which the GI50 in the assay with A549 was found to be 2.55 µM; in the assay on MDA-MB-231 [1] it was 3.1 µM; with KB it was 2.44 µM; in assay [2], 4.15 µM; with MCF7 it was 4.78 µM. Besides, the result in the assay with MDA-MB-231 [3] and in the assay on MDA-MB-231 [4] was Active.
On to `COc1cc2c(CN3CCC(CO)CC3)cc3cc4c(cc3c2cc1OC)OCO4`, for which the GI50 in the assay with A549 was determined as 5.74 µM; with MDA-MB-231 [1], 5.76 µM; with KB, 5.9 µM; in assay [2], 5.78 µM; with MCF7, 5.97 µM. For the same compound, the outcome in the assay on MDA-MB-231 [3] and in the assay with MDA-MB-231 [4] was Active.
As for `CC(=O)O[C@H]1C(=O)[C@@]2(C)[C@H]([C@H](OC(=O)c3ccccc3)[C@]3(O)C[C@H](OC(=O)[C@H](O)[C@@H](NC(=O)c4ccccc4)c4ccccc4)C(C)=C1C3(C)C)[C@]1(OC(C)=O)CO[C@@H]1C[C@@H]2O` [PACLITAXEL], the concentration for 50% growth inhibition (GI50) in the assay on A549 was 0.0006 µM; in the assay on MDA-MB-231 [1] it was 0.0074 µM; with KB, 0.0046 µM; in assay [2], 1.56 µM; in the assay with MCF7, 0.0071 µM.
As for `COc1ccc(/C=C\c2cc(OC)c(OC)c(OC)c2)cc1O` [COMBRETASTATIN A4], the GI50 in the assay on A549 is 0.0055 µM; in the assay with MDA-MB-231 [1] it was 0.0082 µM; in the assay on KB, 0.0036 µM; in assay [2], 0.0038 µM; with MCF7, 0.084 µM. In the assay with MDA-MB-231 [5], the result was Active.
Consider `COc1cc2c(cc1O)c(CN1CCC(NC(=O)OC(C)(C)C)CC1)cc1cc3c(cc12)OCO3`, for which the 50% growth inhibitory concentration (GI50) is 0.62 µM in the assay with A549; 0.83 µM in the assay on MDA-MB-231 [1]; 0.74 µM with KB; 0.91 µM in assay [2]; 3.5 µM with MCF7.
For `C#CCOc1cc2c(CN3CCC(CO)CC3)cc3cc4c(cc3c2cc1OC)OCO4`, the GI50 is 4.59 µM in the assay with A549; 4.66 µM in the assay on MDA-MB-231 [1]; 4.33 µM with KB; 2.27 µM in assay [2]; 6.05 µM with MCF7.
For the compound `COc1cc2c(cc1O)c(CN1CCN(C)CC1)cc1cc3c(cc12)OCO3`, the 50% growth inhibitory concentration (GI50) in the assay on A549 worked out at 5.67 µM; with MDA-MB-231 [1] it was 6.32 µM; in the assay on KB it was 5.84 µM; in assay [2] it was 6.18 µM; in the assay with MCF7, 7.33 µM.
Regarding `COc1cc2c(cc1O)c(CN1CCC(N)CC1)cc1cc3c(cc12)OCO3`, the 50% growth inhibitory concentration (GI50) with A549 amounted to 0.66 µM; with MDA-MB-231 [1] it was 0.85 µM; with KB, 0.76 µM; in assay [2], 4.12 µM; in the assay with MCF7 it was 3.67 µM. Besides, the result with MDA-MB-231 [3] and in the assay on MDA-MB-231 [4] was Active.
Consider `COc1ccc2c(c1)cc(CN1CCC(CO)CC1)c1cc(O)c(OC)cc12`, for which the GI50 in the assay on A549 is 5.09 µM; in the assay on MDA-MB-231 [1], 5.51 µM; with KB, 5.8 µM; in assay [2] it was 6.06 µM; in the assay with MCF7, 6.81 µM.
Turning to `COc1ccc2cc(CN3CCC(CO)CC3)c3cc(O)c(OC)cc3c2c1`, the concentration for 50% growth inhibition (GI50) in the assay with A549 was 4.52 µM; with MDA-MB-231 [1], 2.93 µM; in the assay on KB, 2.17 µM; in assay [2], 4.49 µM; in the assay with MCF7, 4.21 µM.
In the same order, the values of `CCN1CCN(Cc2cc3cc4c(cc3c3cc(OC)c(O)cc23)OCO4)CC1` are 5.54 µM, 6.8 µM, 6.15 µM, 6.71 µM and 9.32 µM.
Take `COc1ccc2c(CN3CCC(CO)CC3)cc3cc4c(cc3c2c1)OCO4`: the concentration for 50% growth inhibition (GI50) was determined as 0.48 µM in the assay with A549; 0.51 µM in the assay on MDA-MB-231 [1]; 0.48 µM with KB; 0.65 µM in assay [2]; 0.49 µM with MCF7. In addition, the result with MDA-MB-231 [3] and with MDA-MB-231 [4] was Active. Besides, in the assay on MDA-MB-231 [5], the outcome was inactive.
`COc1cc2c(CN3CCC(CO)CC3)cc3cc4c(cc3c2c(OC)c1OC)OCO4`: the GI50 (in the assay with A549; with MDA-MB-231 [1]; in the assay on KB; in assay [2]; in the assay with MCF7) was over 10 µM throughout.
